Values quoted from earlier work, collected in patent US10172940B2 (priority 2009, dated 2019).

Test system: canine visceral leishmaniasis (CVL)

Compound: Oc1ncnc2[nH]ncc12 [allopurinol]
- parasitological cure and PCR result (20 months of treatment): without parasitological cure or negative results for PCR
- clinical recovery / clinical improvement (dog, in vivo): 9/10
- dogs remaining positive for parasites (culture, PCR of lymph node, parasitological aspect) (dog, in vivo): 8 dogs

Compound: NC[C@@H]1O[C@H](O[C@H]2[C@@H](O)[C@H](O[C@@H]3[C@@H](O)[C@H](N)C[C@H](N)[C@H]3O[C@H]3O[C@H](CO)[C@@H](O)[C@H](O)[C@H]3N)O[C@@H]2CO)[C@H](N)[C@@H](O)[C@@H]1O [aminosidine]
- dogs remaining positive for parasites (culture, PCR of lymph node, parasitological aspect) (dog, in vivo): 4/4
- dogs with absence of symptoms and parasites for 4 years (higher doses): 3/12
- dogs with relapse (higher doses): 9

Compound: N=C(N)c1ccc(OCCCCCOc2ccc(C(=N)N)cc2)cc1 [pentamidine]
- clinical recovery / clinical improvement (dog, in vivo): improve clinically
- recurrence of the disease (dog, in vivo): show recurrence of the disease

Compound: Meglumine antimoniate
- treated dogs from which parasites were recovered (15 dogs treated): 79%
- dogs PCR positive after treatment (dog, in vivo): 5/6
